Where a SMILES comes first, the peptide text is derived from it. Bridges are numbered along the chain shown (N, C = ends).
What was measured:
Format in all cases: cell-based
hNav1.1 = target: T1, hNav1.1 (Homo sapiens, UniProt P35498); assay: FLIPR membrane potential assay, hNav1.1; conditions: for Selectivity for Nav1.7, Nav subtype 1.1: membrane potential assay
T1 construct: host or cells: HEK293
Protocol: (§1) HEK293 cells stably expressing hNav1.1, hNav1.2, hNav1.3, hNav1.4, hNav1.5, hNav1.6, hNav1.7 and […] (SB Drug Discovery, Glasgow, UK) were cultured in minimum essential media (MEM) containing 10% v/v FBS supplemented with L-glutamine (2 mM) and selection antibiotics G-418 (0.5 mg/mL), blasticidin (2-4 μg/mL) and zeocin (0.5 mg/mL) as recommended by the manufacturer. CHO cells stably expressing hNav1.8 in a tetracycline-inducible system (Chantest, OH, USA) were cultured in Ham's F-12 containing 10% v/v FBS and selection antibiotics as recommended by the manufacturer. To induce hNav1.8 expression, cells were cultured in the presence of tetracycline (1 μg/mL) for 24 h at 27° C. Cells were grown in a humidified 5% CO2 incubator at 37° C., grown to 70-80% confluence, and passaged every 3-4 days using TrypLE Express (Invitrogen).
(§2) Cells were plated 48 h before the assay on 384-well black walled imaging plates at a density of 10,000 to 15,000 cells per well and were loaded with red membrane potential dye for 30 min at 37° C. (Molecular Devices, CA, USA). One vial of bulk red membrane potential dye was reconstituted to a 10× stock solution with PSS and stored at −20° C. and diluted to 1× solution with PSS on the day of the assay. […] Changes in membrane potential were assessed using the FLIPR^TETRA (excitation 515 to 545 nm, emission 565 to 625 nm) every second for 300 s after adding agonists.

hNav1.3 = target: T2, hNav1.3 (Homo sapiens, UniProt Q9NY46); assay: FLIPR membrane potential assay, hNav1.3; conditions: for Selectivity for Nav1.7, Nav subtype 1.3: membrane potential assay
T2 construct: host or cells: HEK293
Protocol: as §1, §2

hNav1.4 = target: T3, hNav1.4 (Homo sapiens, UniProt P35499); assay: FLIPR membrane potential assay, hNav1.4; conditions: for Selectivity for Nav1.7, Nav subtype 1.4: membrane potential assay
T3 construct: host or cells: HEK293
Protocol: as §1, §2

hNav1.5 = target: T4, hNav1.5 (Homo sapiens, UniProt Q14524); assay: FLIPR membrane potential assay, hNav1.5; conditions: for Selectivity for Nav1.7, Nav subtype 1.5: membrane potential assay
T4 construct: host or cells: HEK293
T4 sequence (Q14524 whole entry): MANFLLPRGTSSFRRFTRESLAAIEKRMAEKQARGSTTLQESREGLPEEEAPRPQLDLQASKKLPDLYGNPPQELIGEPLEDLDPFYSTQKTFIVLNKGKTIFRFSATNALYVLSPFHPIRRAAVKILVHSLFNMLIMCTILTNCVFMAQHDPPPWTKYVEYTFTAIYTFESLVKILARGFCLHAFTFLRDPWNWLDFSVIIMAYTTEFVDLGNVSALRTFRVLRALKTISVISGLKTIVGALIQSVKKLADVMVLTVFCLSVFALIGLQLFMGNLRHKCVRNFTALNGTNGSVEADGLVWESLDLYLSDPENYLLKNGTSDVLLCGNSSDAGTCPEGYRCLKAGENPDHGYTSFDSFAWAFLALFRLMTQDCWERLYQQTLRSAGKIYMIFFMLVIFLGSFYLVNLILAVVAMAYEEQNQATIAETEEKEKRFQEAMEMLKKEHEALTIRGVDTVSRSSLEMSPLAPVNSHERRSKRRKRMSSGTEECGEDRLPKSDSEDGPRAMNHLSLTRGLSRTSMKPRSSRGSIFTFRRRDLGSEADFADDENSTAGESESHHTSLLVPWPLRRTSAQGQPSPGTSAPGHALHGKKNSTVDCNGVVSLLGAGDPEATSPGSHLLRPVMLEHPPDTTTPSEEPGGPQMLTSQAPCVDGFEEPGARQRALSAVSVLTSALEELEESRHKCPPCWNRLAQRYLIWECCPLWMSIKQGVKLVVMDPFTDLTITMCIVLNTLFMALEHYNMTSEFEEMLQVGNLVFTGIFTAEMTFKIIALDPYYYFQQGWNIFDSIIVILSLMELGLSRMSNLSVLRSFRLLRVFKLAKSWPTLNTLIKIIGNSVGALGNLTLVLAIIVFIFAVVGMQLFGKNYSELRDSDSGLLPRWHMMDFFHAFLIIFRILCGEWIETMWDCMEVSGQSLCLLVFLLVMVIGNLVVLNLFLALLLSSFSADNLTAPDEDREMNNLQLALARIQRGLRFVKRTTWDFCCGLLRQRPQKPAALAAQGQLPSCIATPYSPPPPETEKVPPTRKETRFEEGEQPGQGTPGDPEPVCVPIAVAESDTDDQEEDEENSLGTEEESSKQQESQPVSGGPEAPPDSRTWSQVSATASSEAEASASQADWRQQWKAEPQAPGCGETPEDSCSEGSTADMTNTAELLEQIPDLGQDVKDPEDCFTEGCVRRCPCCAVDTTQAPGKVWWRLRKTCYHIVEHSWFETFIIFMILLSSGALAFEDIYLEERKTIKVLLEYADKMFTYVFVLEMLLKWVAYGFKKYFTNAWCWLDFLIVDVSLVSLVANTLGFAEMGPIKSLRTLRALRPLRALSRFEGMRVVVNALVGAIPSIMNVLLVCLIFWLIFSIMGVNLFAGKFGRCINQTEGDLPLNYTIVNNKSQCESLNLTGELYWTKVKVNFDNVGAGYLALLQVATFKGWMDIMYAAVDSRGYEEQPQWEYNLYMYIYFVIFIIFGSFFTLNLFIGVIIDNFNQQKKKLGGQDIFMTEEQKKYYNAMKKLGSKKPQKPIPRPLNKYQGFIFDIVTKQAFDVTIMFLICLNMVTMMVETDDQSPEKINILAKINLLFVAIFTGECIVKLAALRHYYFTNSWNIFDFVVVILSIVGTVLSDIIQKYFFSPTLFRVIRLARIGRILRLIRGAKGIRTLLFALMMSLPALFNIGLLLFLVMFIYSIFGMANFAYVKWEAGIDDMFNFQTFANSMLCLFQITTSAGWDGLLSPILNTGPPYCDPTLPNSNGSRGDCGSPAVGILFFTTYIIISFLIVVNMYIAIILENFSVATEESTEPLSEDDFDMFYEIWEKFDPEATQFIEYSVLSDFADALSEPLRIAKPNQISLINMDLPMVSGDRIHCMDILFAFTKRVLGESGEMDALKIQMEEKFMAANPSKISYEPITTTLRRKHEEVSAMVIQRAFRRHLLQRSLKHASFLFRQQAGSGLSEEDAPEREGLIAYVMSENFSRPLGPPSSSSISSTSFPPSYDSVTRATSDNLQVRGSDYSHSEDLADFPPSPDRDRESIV
Protocol: as §1, §2

hNav1.6 = target: T5, hNav1.6 (Homo sapiens, UniProt Q9UQD0); assay: FLIPR membrane potential assay, hNav1.6; conditions: for Selectivity for Nav1.7, Nav subtype 1.6: membrane potential assay
T5 construct: host or cells: HEK293
Protocol: as §1, §2

hNav1.7 = target: T6, hNav1.7 (Homo sapiens, UniProt Q15858); assay: FLIPR membrane potential assay, hNav1.7; conditions: for Selectivity for Nav1.7, Nav subtype 1.7: membrane potential assay, reference subtype
T6 construct: host or cells: HEK293
Protocol: as §1, §2

hNav1.2 = target: T7, hNav1.2 (Homo sapiens, UniProt Q99250); assay: FLIPR membrane potential assay, hNav1.2; conditions: for Selectivity for Nav1.7, Nav subtype 1.2: membrane potential assay
T7 construct: host or cells: HEK293
Protocol: as §1, §2

hNav1.8 = target: T8, hNav1.8 (Homo sapiens, UniProt Q9Y5Y9); assay: FLIPR membrane potential assay, hNav1.8; conditions: for Selectivity for Nav1.7, Nav subtype 1.8: membrane potential assay
T8 construct: host or cells: HEK293
T8 sequence (Q9Y5Y9 whole entry): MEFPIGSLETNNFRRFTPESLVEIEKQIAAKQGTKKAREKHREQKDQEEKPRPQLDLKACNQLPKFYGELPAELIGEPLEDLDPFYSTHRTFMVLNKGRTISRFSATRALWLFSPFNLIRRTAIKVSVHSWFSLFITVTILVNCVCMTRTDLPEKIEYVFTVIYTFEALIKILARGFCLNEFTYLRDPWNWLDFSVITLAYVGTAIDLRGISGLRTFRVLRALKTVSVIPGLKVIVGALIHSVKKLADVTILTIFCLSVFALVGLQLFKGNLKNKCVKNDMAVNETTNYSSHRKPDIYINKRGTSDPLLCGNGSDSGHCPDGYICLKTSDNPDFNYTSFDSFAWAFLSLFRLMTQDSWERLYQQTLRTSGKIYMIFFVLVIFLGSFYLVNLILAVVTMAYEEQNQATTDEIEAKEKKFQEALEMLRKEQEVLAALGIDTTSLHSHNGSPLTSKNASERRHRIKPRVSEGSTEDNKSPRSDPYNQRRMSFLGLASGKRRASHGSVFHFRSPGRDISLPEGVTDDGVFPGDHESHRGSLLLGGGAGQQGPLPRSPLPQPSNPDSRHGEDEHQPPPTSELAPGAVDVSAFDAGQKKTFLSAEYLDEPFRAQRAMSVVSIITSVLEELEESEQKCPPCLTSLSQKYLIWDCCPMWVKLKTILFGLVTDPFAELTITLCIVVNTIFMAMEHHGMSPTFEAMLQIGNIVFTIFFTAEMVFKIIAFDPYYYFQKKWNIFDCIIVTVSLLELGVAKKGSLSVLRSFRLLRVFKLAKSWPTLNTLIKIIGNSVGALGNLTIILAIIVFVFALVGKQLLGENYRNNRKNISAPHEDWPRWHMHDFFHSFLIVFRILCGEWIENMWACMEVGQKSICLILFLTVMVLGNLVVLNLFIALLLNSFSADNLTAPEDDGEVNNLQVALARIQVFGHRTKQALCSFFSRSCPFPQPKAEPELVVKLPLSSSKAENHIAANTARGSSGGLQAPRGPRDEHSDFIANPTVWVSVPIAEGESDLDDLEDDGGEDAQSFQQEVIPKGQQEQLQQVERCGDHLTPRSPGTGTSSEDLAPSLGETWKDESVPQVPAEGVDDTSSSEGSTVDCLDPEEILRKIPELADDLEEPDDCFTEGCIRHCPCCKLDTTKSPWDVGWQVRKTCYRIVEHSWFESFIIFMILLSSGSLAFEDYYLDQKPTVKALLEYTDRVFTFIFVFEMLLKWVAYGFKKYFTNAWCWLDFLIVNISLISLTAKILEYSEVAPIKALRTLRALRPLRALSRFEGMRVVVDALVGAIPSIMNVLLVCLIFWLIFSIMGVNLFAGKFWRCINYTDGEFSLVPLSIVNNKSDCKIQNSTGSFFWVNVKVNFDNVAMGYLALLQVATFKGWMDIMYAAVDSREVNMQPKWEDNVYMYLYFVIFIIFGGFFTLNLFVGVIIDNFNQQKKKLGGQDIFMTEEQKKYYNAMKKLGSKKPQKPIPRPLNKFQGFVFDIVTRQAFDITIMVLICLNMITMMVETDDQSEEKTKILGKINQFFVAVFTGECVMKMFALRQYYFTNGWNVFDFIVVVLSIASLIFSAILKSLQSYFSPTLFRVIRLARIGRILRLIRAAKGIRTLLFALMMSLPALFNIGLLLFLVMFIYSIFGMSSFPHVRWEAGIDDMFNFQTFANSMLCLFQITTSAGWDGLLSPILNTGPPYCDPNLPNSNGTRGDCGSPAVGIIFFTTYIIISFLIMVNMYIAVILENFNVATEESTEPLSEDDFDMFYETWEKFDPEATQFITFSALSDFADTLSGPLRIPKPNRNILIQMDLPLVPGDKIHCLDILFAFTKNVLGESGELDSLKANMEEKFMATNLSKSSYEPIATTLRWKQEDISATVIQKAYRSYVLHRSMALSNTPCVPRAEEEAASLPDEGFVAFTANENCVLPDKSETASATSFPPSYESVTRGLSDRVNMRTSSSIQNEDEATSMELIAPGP
Protocol: as §1, §2

Structure (SMILES) | IC50 (hNav1.1) [µM] | Selectivity for Nav1.7, Nav subtype 1.1 (hNav1.1) | IC50 (hNav1.3) [µM] | Selectivity for Nav1.7, Nav subtype 1.3 (hNav1.3) | IC50 (hNav1.4) [µM] | Selectivity for Nav1.7, Nav subtype 1.4 (hNav1.4) | IC50 (hNav1.5) [µM] | Selectivity for Nav1.7, Nav subtype 1.5 (hNav1.5) | IC50 (hNav1.6) [µM] | Selectivity for Nav1.7, Nav subtype 1.6 (hNav1.6) | IC50 (hNav1.7) [µM] | Selectivity for Nav1.7, Nav subtype 1.7 (hNav1.7) | IC50 (hNav1.2) [µM] | Selectivity for Nav1.7, Nav subtype 1.2 (hNav1.2) | IC50 (hNav1.8) [µM] | Selectivity for Nav1.7, Nav subtype 1.8 (hNav1.8)
CSCC[C@@H]1NC(=O)[C@H](Cc2ccc(O)cc2)NC(=O)[C@H](CCCNC(=N)N)NC(=O)[C@@H](NC(=O)[C@@H](N)CC(=O)O)CSSC[C@@H]2NC(=O)[C@@H]3CSSC[C@@H](C(=O)N[C@@H](C)C(=O)N[C@@H](Cc4c[nH]c5ccccc45)C(=O)N[C@@H](CC(=O)O)C(=O)N[C@@H](Cc4ccccc4)C(=O)N[C@H](C(=O)N[C@@H](Cc4ccccc4)C(=O)N[C@H](C(=O)O)[C@@H](C)O)[C@@H](C)O)NC(=O)[C@H](Cc4ccc(O)cc4)NC(=O)[C@H](CCCCN)NC(=O)[C@H](CCSC)NC(=O)[C@H](CCCCN)NC(=O)[C@H](CCCCN)NC(=O)[C@H](CCCCN)NC(=O)[C@H](CSSC[C@H](NC(=O)[C@H](CC(=O)O)NC(=O)CNC(=O)[C@H](Cc4ccccc4)NC1=O)C(=O)N[C@@H](CCC(=O)O)C(=O)N[C@@H](CCCCN)C(=O)N[C@@H](CC(=O)O)C(=O)N[C@@H](CCC(=O)O)C(=O)N[C@@H](CC(=O)O)C(=O)N3)NC(=O)CNC(=O)[C@H](CC(C)C)NC(=O)[C@H](Cc1c[nH]cn1)NC(=O)[C@H](CCCCN)NC2=O [[R23K]Pnc1a] (H-DCRYMFGDCEKDEDCCKHLGCKKKMKYCAWDFTFT-OH; disulfide 2-16, 9-21, 15-28) | 8 | 33 | 5 | 19 | 10 | 40 | > 30 | >120 | 16 | 63 | 0.251 | 1 | 3 | 14 | > 30 | >120
CSCC[C@@H]1NC(=O)[C@H](Cc2ccc(O)cc2)NC(=O)[C@H](CCCNC(=N)N)NC(=O)[C@@H](NC(=O)[C@@H](N)CC(=O)O)CSSC[C@@H]2NC(=O)[C@@H]3CSSC[C@@H](C(=O)N[C@@H](C)C(=O)N[C@@H](C)C(=O)N[C@@H](CC(=O)O)C(=O)N[C@@H](Cc4ccccc4)C(=O)N[C@H](C(=O)N[C@@H](Cc4ccccc4)C(=O)N[C@H](C(=O)O)[C@@H](C)O)[C@@H](C)O)NC(=O)[C@H](Cc4ccc(O)cc4)NC(=O)[C@H](CCCCN)NC(=O)[C@H](CCSC)NC(=O)[C@H](CCCCN)NC(=O)[C@H](CCCNC(=N)N)NC(=O)[C@H](CCCCN)NC(=O)[C@H](CSSC[C@H](NC(=O)[C@H](CC(=O)O)NC(=O)CNC(=O)[C@H](Cc4ccccc4)NC1=O)C(=O)N[C@@H](CCC(=O)O)C(=O)N[C@@H](CCCCN)C(=O)N[C@@H](CC(=O)O)C(=O)N[C@@H](CCC(=O)O)C(=O)N[C@@H](CC(=O)O)C(=O)N3)NC(=O)CNC(=O)[C@H](CC(C)C)NC(=O)[C@H](Cc1c[nH]cn1)NC(=O)[C@H](CCCCN)NC2=O [[W30A]Pnc1a] (H-DCRYMFGDCEKDEDCCKHLGCKRKMKYCAADFTFT-OH; disulfide 2-16, 9-21, 15-28) | 15 | 2 | 11 | 2 | 12 | 2 | 6 | 0.9 | > 30 | 4 | 7 | 1 | 24 | 3 | > 30 | 4
CSCC[C@@H]1NC(=O)[C@H](C)NC(=O)[C@H](CCCNC(=N)N)NC(=O)[C@@H](NC(=O)[C@@H](N)CC(=O)O)CSSC[C@@H]2NC(=O)[C@@H]3CSSC[C@@H](C(=O)N[C@@H](C)C(=O)N[C@@H](Cc4c[nH]c5ccccc45)C(=O)N[C@@H](CC(=O)O)C(=O)N[C@@H](Cc4ccccc4)C(=O)N[C@H](C(=O)N[C@@H](Cc4ccccc4)C(=O)N[C@H](C(=O)O)[C@@H](C)O)[C@@H](C)O)NC(=O)[C@H](Cc4ccc(O)cc4)NC(=O)[C@H](CCCCN)NC(=O)[C@H](CCSC)NC(=O)[C@H](CCCCN)NC(=O)[C@H](CCCNC(=N)N)NC(=O)[C@H](CCCCN)NC(=O)[C@H](CSSC[C@H](NC(=O)[C@H](CC(=O)O)NC(=O)CNC(=O)[C@H](Cc4ccccc4)NC1=O)C(=O)N[C@@H](CCC(=O)O)C(=O)N[C@@H](CCCCN)C(=O)N[C@@H](CC(=O)O)C(=O)N[C@@H](CCC(=O)O)C(=O)N[C@@H](CC(=O)O)C(=O)N3)NC(=O)CNC(=O)[C@H](CC(C)C)NC(=O)[C@H](Cc1c[nH]cn1)NC(=O)[C@H](CCCCN)NC2=O [[Y4A]Pnc1a] (H-DCRAMFGDCEKDEDCCKHLGCKRKMKYCAWDFTFT-OH; disulfide 2-16, 9-21, 15-28) | 17 | 19 | 20 | 22 | 12 | 12 | 18 | 20 | > 30 | >30 | 0.934 | 1 | 8 | 8 | > 30 | >30

Source: patent publication US10662229B2, “Spider venom peptides and methods of use for modulating sodium channels” (priority 2016, dated 2020)
